# Source: article PMC12858405, “Ideal efficacy photoswitching for chromocontrol of TRPC4/5 channel functions in live tissues” (Nature Chemical Biology, 2026)
# Assays:
# EA-activated TRPC4 = target: T1, EA-activated TRPC4 (Mus musculus, UniProt Q9QUQ5); assay: FLIPR Ca2+ assay, E isomers silencing EA-activated TRPC4 (HEK293-mTRPC4β-YFP); type: cell-based; conditions: Inhibitory IC50 (versus 30 nM EA) TRPC4, E isomer, thermally relaxed; 30 nM EA
# T1 construct: expressed in transfected cells; host or cells: HEK293-mTRPC4β-YFP
# T1 sequence (Q9QUQ5 1-890 isoform Q9QUQ5-2): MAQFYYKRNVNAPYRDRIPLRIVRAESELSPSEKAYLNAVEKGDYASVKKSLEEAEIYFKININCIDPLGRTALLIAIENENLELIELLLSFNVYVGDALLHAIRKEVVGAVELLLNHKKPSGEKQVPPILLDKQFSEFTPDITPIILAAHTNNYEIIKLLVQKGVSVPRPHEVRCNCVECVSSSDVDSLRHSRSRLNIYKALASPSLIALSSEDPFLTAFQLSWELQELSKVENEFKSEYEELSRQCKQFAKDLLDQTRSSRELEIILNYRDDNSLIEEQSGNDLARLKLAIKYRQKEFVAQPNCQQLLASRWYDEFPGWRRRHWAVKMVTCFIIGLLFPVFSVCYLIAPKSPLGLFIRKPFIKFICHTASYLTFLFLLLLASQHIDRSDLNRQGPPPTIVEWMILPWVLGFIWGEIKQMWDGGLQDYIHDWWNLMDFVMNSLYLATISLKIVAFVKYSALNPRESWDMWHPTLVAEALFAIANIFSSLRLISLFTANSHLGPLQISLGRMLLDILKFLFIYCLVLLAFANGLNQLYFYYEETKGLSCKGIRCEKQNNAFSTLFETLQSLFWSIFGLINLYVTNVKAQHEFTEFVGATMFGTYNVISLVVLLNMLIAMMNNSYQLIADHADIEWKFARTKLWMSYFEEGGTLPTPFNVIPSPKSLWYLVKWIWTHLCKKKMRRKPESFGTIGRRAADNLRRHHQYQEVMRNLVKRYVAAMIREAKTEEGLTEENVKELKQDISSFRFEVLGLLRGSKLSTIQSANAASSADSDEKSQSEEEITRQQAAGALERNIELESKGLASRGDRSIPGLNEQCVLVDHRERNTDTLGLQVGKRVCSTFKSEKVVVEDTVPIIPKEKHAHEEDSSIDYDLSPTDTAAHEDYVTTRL
# From the text: (§1) (2) The EC50 values are reported as the midpoints of unconstrained sigmoidal fits to the FLIPR data (Fig 1l and Supplementary Fig. 2): with different levels of channel activation / blocking and very different Hill slopes across different compounds, isomers, and the two channels. This argues that the midpoint values only capture one of the several important factors describing the […]
# (§2) We believe that it is possible to derive indicative relative values for binding affinity comparing the E and Z isomers of the same compound using only the combination of FLIPR and ephys data as reported in this paper; this analysis is being developed in a separate paper (see also below).
# (§3) Supplementary Table 1. Potencies on TRPC4/5 depicted as either simple agonistic potency (blue) or else inhibitory […]
# (§4) . Z*-values refer to mostly-Z-isomer reached at PSS at 365 nm, E*-values refer to experiments that initially applied 100% E-isomer (thermally relaxed), though in both cases the Ca2+ imaging in FLIPR with Fluo4-AM uses 470 nm excitation, which may over time promote photoswitching towards a PSS that is intermediate between those of pure-365 nm and all-E; this is controlled for in the more reliable ephys measurements). (Table indices: a, data from ref7; b, data from ref2; c, data from ref3; d, data from ref8.) EC50 [nM] (for simple agonism or EA-competitive inhibition)
# (§5) E-AzPico 90 (vs 30 nM EA) 67 (vs 30 nM EA) […]
# (§6) orange: inhibitory effect ag.: agonistic effect
# (§7) 1.1.1 From always-active antagonists and agonists towards efficacy photoswitches […]
# (§8) photoisomerising an azobenzene that is merged in at the C’4 position yielding the compounds […]
# deliver (Fig. 1-2) is a powerful support for an efficacy switch interpretation. To indirectly support this further, we also measured the effects of E-AzPico and E-AzHC against EA-activated TRPC4/5. […]
# (§9) to be an EA-competitive binder5,9,10), so their efficacy as single agent photoswitches results from E/Z-competitive binding that is determined by their PSS. […]
# (§10) Supplementary Table 2. […] (a Inhibitory effect measured against 30 nM EA; b Inhibitory effect measured against 50 nM EA). […]
# EA-activated TRPC5 = target: T2, EA-activated TRPC5 (Mus musculus, UniProt Q9QX29); assay: FLIPR Ca2+ assay, E isomers silencing EA-activated TRPC5 (HEK293-mTRPC5-YFP); type: cell-based
# T2 construct: expressed in transfected cells; host or cells: HEK293-mTRPC5-YFP
# T2 sequence (Q9QX29 1-975): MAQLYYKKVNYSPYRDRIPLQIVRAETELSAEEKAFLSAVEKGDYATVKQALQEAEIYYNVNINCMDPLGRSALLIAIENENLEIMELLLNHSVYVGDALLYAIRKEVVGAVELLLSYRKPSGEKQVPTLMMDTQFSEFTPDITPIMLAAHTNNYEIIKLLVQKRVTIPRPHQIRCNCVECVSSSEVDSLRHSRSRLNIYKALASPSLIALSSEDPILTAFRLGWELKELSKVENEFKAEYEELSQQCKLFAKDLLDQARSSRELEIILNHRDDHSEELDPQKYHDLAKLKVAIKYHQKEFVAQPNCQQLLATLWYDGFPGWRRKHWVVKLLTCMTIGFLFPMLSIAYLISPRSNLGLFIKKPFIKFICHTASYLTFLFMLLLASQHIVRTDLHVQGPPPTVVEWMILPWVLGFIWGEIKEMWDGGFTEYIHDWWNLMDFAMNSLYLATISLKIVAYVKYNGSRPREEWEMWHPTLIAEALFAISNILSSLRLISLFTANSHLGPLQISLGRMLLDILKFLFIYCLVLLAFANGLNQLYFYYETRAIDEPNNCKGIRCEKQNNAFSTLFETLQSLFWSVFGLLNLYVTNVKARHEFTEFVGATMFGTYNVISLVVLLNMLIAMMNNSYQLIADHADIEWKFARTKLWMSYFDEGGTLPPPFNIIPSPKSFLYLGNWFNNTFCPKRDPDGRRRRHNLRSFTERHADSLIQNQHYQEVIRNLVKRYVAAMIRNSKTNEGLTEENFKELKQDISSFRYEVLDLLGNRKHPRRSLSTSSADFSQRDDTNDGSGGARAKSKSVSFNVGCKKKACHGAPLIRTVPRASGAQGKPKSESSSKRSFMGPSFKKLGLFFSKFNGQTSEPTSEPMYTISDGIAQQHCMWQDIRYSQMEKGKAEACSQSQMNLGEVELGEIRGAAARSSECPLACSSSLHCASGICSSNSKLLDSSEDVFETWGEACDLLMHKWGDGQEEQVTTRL
# From the text: Müller, Niemeyer, et al., Schaefer & Thorn-Seshold 2025: Ideal Efficacy Photoswitching of TRPC4/5 in Tissue but it can justify why the affinity of the E/Z-isomers may be similar.
# as §1, §2, §3, §4, §5, §6, §7, §8
# inhibitory effect for the E-isomers (Supplementary Table 1). Essentially, the effects of Pico145 and AM237 are latent within a single (two-state reversibly photoswitchable) molecule. This combination is what we call an efficacy switch (also see main text Fig. 1e-j).
# 1.1.2 Mechanistic test for efficacy photoswitching […]
# deliver (Fig. 1-2) is a powerful support for an efficacy switch interpretation. To indirectly support this further, we also measured the effects of E-AzPico and E-AzHC against EA-activated TRPC4/5.
# Both E-isomers bind to TRPC4/5 and inhibit EA-evoked currents with nanomolar potencies (Supplementary Fig. 2, Supplementary Table 2). This supports the hypothesis that E- […]
# as §9, §10
# mouse TRPC4β = target: T3, mouse TRPC4β (Mus musculus, UniProt Q9QUQ5); assay: FLIPR Ca2+ influx assay (Fluo-4) with 365/447 nm photoswitching, HEK293 stably expressing mouse TRPC4β; type: cell-based; conditions: Z* = mostly-Z PSS under 365 nm LED; Fluo-4-loaded cells; read-out: Agonistic EC50 (365 nm) TRPC4
# T3 construct: expressed in transfected cells; host or cells: HEK293 (ATCC CRL 1573), stably transfected, tetracycline-induced
# T3 sequence (Q9QUQ5 1-890 isoform Q9QUQ5-2): T1 sequence (Q9QUQ5 1-890 isoform Q9QUQ5-2)
# From the text: (§11) We initially screened for the photoswitchability of activity in cells using a fluorometric imaging plate reader (FLIPR) calcium flux assay, with HEK293 cells stably expressing mouse TRPC4β or mouse TRPC5. Note, however, that the parallel-throughput FLIPR setup is limited to use fixed light-emitting diodes at 365 nm (good Z) and 447 nm (suboptimal E), which, combined with the slowness of the onset and recovery of the fluorescence readout for calcium, causes the FLIPR results to underestimate the reagents’ true speed, degree and completion of TRPC chromocontrol (shown later). […]
# (§12) 3 Cultured Cell Lines (primarily for Fig. 1 and Fig. 2)
# (§13) 3.1 FLIPR Ca2+ influx assay in cell suspensions.
# (§14) We initially screened for photoswitchability of activity in cells, using a fluorometric imaging plate reader (FLIPR) calcium flux assay, with human embryonic kidney cell line HEK293 stably transfected to express mouse TRPC4β- or TRPC5-CFP fusion protein (HEKmTRPC4β-CFP / HEKmTRPC5-CFP, HEK293 obtained from ATCC CRL 1573). The FLIPR setup provides high-content data, but it is limited to using LED wavelengths of 365 nm (best-Z) and 447 nm (suboptimal-E), while imaging at 470 nm excitation (Fluo-4 AM as Ca2+ indicator; this imaging light counteracts both PSSs). Therefore, we expected the FLIPR results to under-estimate the true chromocontrol power accessible to the reagents.
# (§15) Cells were grown to 70%-90% confluency in a 75-cm2 culture flask, trypsinised, washed and resuspended in BSA-containing (0.1%) HBS, and supplemented with 3 µM Fluo-4/AM. Stably TRPC-transfected cells were induced with tetracycline 24 h prior to the experiments.42,43 After incubation at 37°C for 30 min [Fluo-4 loading], cells were again washed, resuspended, and dispensed (40 µl/well) into black pigmented, clear-bottom 384-well plates (Greiner µ-clear). To image the Fluo-4 fluorescence during the application and photoswitching of test compounds, these plates were first mounted to a Tecan Fluent 480 (Tecan, Männedorf, Switzerland) liquid handling device, equipped with a 384-tip multichannel arm and a gripper arm. A custom-made plate-imaging device was used for photoswitching during fluorescence imaging, which features LED-based excitation modules (365 nm and 447 nm used here for photoswitching, and 470 nm used here for Fluo-4 readout) projected onto the bottom of the microwell plate, with a cooled scientific complementary metal oxide sensor (sCMOS) camera (Zyla 5.5, Andor, Belfast, UK) equipped with a Nokton 42.5 mm f/0.95 (Voigtlaender, Fürth, Germany) for detection. The LEDs were controlled with an Arduino device and constant current drivers (1 A for 365 and 470 nm LEDs; 3 A for 447 nm LED); detection was under the control of Micromanager 2.0 software. Compounds were serially diluted and applied to the Fluo-4-loaded cell suspensions inside this custom plate-imaging device, then fluorescence intensities (under 470 nm excitation) were continuously recorded during programmed illuminations e.g. with alternating 365 nm and 447 nm phases.
# (§16) Concentration-response curves for the Z-isomers (channel activation) were then constructed from the maximal signals during 365 nm phases, after a suitable number of "priming" cycles to allow the system to reach stable performance (Supplementary Fig. 13).
# All experiments were conducted as a minimum of 3 independent experiments with each experiment averaging data in technical duplicates.
# Cellular TRPC4 photoswitching: HEK cell Ca2+ influx photomodulation […]
# Supplementary Figure 12. […]
# mouse TRPC5 = target: T4, mouse TRPC5 (Mus musculus, UniProt Q9QX29); assay: FLIPR Ca2+ influx assay (Fluo-4) with 365/447 nm photoswitching, HEK293 stably expressing mouse TRPC5; type: cell-based; conditions: Z* = mostly-Z PSS under 365 nm LED; Fluo-4-loaded cells; read-out: Agonistic EC50 (365 nm) TRPC5
# T4 construct: expressed in transfected cells; host or cells: HEK293 (ATCC CRL 1573), stably transfected, tetracycline-induced
# T4 sequence (Q9QX29 1-975): T2 sequence (Q9QX29 1-975)
# From the text: as §11, §12, §13, §14, §15, §16
# All experiments were conducted as a minimum of 3 independent experiments with each experiment averaging data in technical duplicates. […]
# Cellular TRPC5 photoswitching: HEK cell Ca2+ influx photomodulation […]
# Supplementary Figure 12. […] All […]
# four compounds' profiles are consistent with their being ideal efficacy photoswitches (representative traces from one experiment out of ≥3 independent experiments each run in technical duplicates). […]
# log c [nM] log c [nM] log c [nM] log c [nM]
# Supplementary Figure 13. Dose-response for Z*-AzPico, Z*-AzPico2, Z*-AzHC, and Z*-AzHC2 on TRPC5 and […]
# [1] = system: Th+ neurons of Th-GCaMP6f-ΔTrpc5 mice; assay: GCaMP6f Ca2+ imaging of Th+ neurons in arcuate nucleus brain slices with 355 nm photoswitching, Th-GCaMP6f-ΔTrpc5 (5ko) mice; conditions: 500 nM; 355 nm pulse
# From the text: slices through the ARC of mice expressing the Ca2+ indicator GCaMP6f in Th+ neurons (Fig. 4),
# we investigated (1) whether Ca2+ responses at endogenous TRPC5 expression levels can be
# TRPC5 expression using TRPC5-deficient brain slices, (3) whether a dose dependence could be
# detected, and (4) whether there are properties in channel activity that can be distinguished between
# concentration-response measurements (Fig. 5d).
IC50 (EA-activated TRPC4) [nM],"IC50 (EA-activated TRPC5; Inhibitory IC50 (versus 30 nM EA) TRPC5, E isomer, thermally relaxed, 30 nM EA) [nM]","IC50 (EA-activated TRPC5; Inhibitory IC50 (versus 50 nM EA) TRPC5, E isomer, 50 nM EA) [nM]",EC50 (mouse TRPC4β) [nM],EC50 (mouse TRPC5) [nM],Compound,Ca2+ photoresponse in TRPC5-knockout slices [1]
110,149,177,,,Cn1c(=O)n(CCCO)c(=O)c2c1nc(Oc1ccc(/N=N/c3ccccc3)c(Cl)c1)n2Cc1ccc(Cl)cc1 [E-AzHC],
,,,3,4,Cn1c(=O)n(CCCO)c(=O)c2c1nc(Oc1ccc(/N=N\c3ccccc3)c(OC(F)(F)F)c1)n2Cc1ccc(Cl)cc1 [Z*-AzPico],maintained
